# Results published in patent EP2326328B1, “USE OF DIHYDRALAZINE FOR THE TREATMENT OF DISEASES RELATED TO ELEVATED SEMICARBAZIDE SENSITIVE AMINE-OXIDASE (SSAO) ACTIVITY” (Semmelweis Egyetem, priority 2008, dated 2010).
# Legend:
# human serum SSAO = target: T1, human serum SSAO (Homo sapiens, UniProt Q16853); test: radiochemical determination of SSAO activity in human serum (14C-benzylamine substrate); type: biochemical; conditions: 20 min pre-incubation at room temperature, 37°C 40 min
# T1 construct: from tissue; host or cells: human serum
# T1 sequence (Q16853 29-763 limits assumed): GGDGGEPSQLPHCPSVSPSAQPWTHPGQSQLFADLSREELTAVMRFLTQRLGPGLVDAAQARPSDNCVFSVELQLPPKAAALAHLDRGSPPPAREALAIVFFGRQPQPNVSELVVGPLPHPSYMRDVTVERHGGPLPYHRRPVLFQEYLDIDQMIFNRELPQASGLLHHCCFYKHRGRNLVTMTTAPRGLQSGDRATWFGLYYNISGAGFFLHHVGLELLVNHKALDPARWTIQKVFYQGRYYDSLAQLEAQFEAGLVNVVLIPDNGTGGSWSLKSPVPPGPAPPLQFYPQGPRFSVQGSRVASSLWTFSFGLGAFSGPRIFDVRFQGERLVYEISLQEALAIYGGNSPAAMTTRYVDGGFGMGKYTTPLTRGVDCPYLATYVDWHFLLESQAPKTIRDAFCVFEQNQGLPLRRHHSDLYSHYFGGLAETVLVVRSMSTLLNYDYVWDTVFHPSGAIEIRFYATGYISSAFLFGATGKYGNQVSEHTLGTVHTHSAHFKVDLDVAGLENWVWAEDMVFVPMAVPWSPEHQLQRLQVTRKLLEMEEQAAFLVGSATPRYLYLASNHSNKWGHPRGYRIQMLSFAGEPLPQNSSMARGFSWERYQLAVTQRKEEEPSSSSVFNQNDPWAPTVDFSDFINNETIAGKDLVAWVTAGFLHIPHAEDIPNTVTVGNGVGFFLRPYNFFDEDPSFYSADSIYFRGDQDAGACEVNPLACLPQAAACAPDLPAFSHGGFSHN
# Protocol: In the experiment human serum was used in the following way: blood samples were collected without anticoagulant, then stored at 4°C for 15 minutes and centrifuged (4°C, 2500 g/10 min). The supernatant was stored at -80°C until the measurement of the enzyme activity.
# (§1) A radiochemical procedure (Yu P.H., Zuo D.M., Biochem. Pharmacol., 1992, 43, 307-312) was adapted for determining SSAO activities in the human serum. It is based on the determination of the quantity of ^14C-benzaldehyde formed by the enzyme reaction of ^14C-benzylamine.
# The preparations containing the serum and the dihydralazine enzyme inhibitor were pre-incubated at room temperature for 20 min. The enzyme reaction was started with ^14C-benzylamine substrate (- 200000 dpm/tube). […] The enzyme activity was determined by liquid scintillation counting (600 µl supernatant + 5ml Aquasafe), using the formula below: ([dpm(sample)-dpm0ʹ] x 1.6 x 10 x 1.5)/(measured substrate activity dpm x mg protein) [formula] standing for: 1.6: extraction volume; 10: molar activity; 1.5: correction factor for the incubation time; dpm: disintegrations per minute (unit of radioactivity)
# The inhibition was calculated in the % inhibition compared to the control ('control' sample not containing the inhibitor compound) after correction with the background ('blank' sample). […]
# macular edema = macular edema of type 2 diabetic patients, retinal thickness by optical coherency tomography (OCT); type: in vivo, human; design: OCT CPT (center point thickness): unit not given beside the values; conditions: for OCT CPT (center point thickness) / OCT CST (central subfield thickness): oral 14.5 mg dihydralazine sulphate twice daily
# Protocol: The effect of orally administered low dose dihydralazine on macular edema and serum SSAO activity was studied in type 2 diabetic patients in an early stage of macular edema formation.
# (§2) After giving their informed consent, patients participating in the study were treated for 56 days taking ½ tablet twice daily of a pharmaceutical composition containing 28.9 mg dihydralazine sulphate (i.e. the ½ tablet contained 14.5 mg dihydralazine sulphate).
# To measure the efficacy and monitor the safety of the treatment, the following examinations were carried out before starting the treatment and at the 1., 7., 14., 28. and 56. day of the treatment: • 1. ocular examinations: visual acuity (ETDRS chart), slit-lamp examination, measurement of intraocular pressure with applanation tonometry, fundus biomicroscopy with pupil dilation, digital fundus photography. The grade of macular edema was determined via measuring retinal thickness with optical coherency tomography (OCT). • 2. internal medicine examinations: anamnesis, physical examinations, blood pressure, pulse, urine examination. • 3. laboratory examinations: blood glucose, HbA1c, liver function, kidney function, microalbuminuria, metabolic panel of the blood , lipids, CRP.
# In the table the following abbreviations were used: • BMI: body mass index - weight (kg) / height (m^2) • RRsyst: blood pressure (systolic) (Hgmm) • RRdiast: blood pressure (diastolic) (Hgmm) • OCT CST (central subfield thickness): the average thickness of the central 1-mm area of the macula • OCT CPT (center point thickness): the thickness of the center point of the retina; normally that is the thinnest point of the macula Table 4.
# [1] = blood pressure of treated rats, determined in an invasive way; type: in vivo; conditions: sc 0.1 or 0.01 M solution (0.1 ml/100 g) once daily for 1-5 days, compared to the control group
# Protocol: The blood pressure of the animals was determined in an invasive way. […]
# SSAO = target: T2, SSAO (Homo sapiens, UniProt Q16853); test: serum SSAO activity of treated type 2 diabetic patients; type: in vivo; conditions: for SSAO activity (pmol/mg protein/hour): serum, oral 14.5 mg dihydralazine sulphate twice daily
# T2 construct: from tissue; host or cells: human serum
# T2 sequence (Q16853 29-763 limits assumed): T1 sequence (Q16853 29-763 limits assumed)
# Protocol: as §1
# The preparations containing the serum and the dihydralazine enzyme inhibitor were pre-incubated at room temperature for 20 min. The enzyme reaction was started with ^14C-benzylamine substrate (- 200000 dpm/tube). The samples obtained accordingly were incubated at 37°C for 40 min, then the reaction was stopped by adding 200 µl 2M citric acid solution. In case of the 'blank' sample, citric acid solution was added before adding the substrate, therefore, in this case no enzyme reaction took place. The samples were extracted with 1000 µl 1:1 toluene - ethyl acetate mixture, by vortex method, then centrifuged (2500 g / 5 min). The enzyme activity was determined by liquid scintillation counting (600 µl supernatant + 5ml Aquasafe), using the formula below: ([dpm(sample)-dpm0ʹ] x 1.6 x 10 x 1.5)/(measured substrate activity dpm x mg protein) [formula] standing for: 1.6: extraction volume; 10: molar activity; 1.5: correction factor for the incubation time; dpm: disintegrations per minute (unit of radioactivity)
# as §2
# Serum SSAO activity was determined from blood samples collected before starting the treatment, and at the 14., 28. and 56. day of the treatment. The blood samples were centrifuged and the supernatant was stored at - 80°C until the measurement of the enzyme activity. SSAO activity was determined applying the method described in the example above.
# [2] = 2 treated type 2 diabetic patients, oral 14.5 mg dihydralazine sulphate twice daily for 56 days
smiles,measurement,setting,value
NNc1nnc(NN)c2ccccc12 [dihydralazine],IC20,human serum SSAO,500 nM
same,OCT CPT (center point thickness),"macular edema; 1. patient, 14. day, before treatment 272",215
same,OCT CST (central subfield thickness),"macular edema; 1. patient, 14. day, before treatment 298",266
same,OCT CPT (center point thickness),"macular edema; 1. patient, 28. day, before treatment 272",219
same,OCT CST (central subfield thickness),"macular edema; 1. patient, 28. day, before treatment 298",273
same,OCT CPT (center point thickness),"macular edema; 1. patient, 56. day, before treatment 272",209
same,OCT CST (central subfield thickness),"macular edema; 1. patient, 56. day, before treatment 298",265
same,OCT CPT (center point thickness),"macular edema; 2. patient, 14. day, before treatment 257",319
same,OCT CST (central subfield thickness),"macular edema; 2. patient, 14. day, before treatment 302",323
same,OCT CPT (center point thickness),"macular edema; 2. patient, 28. day, before treatment 257",239
same,OCT CST (central subfield thickness),"macular edema; 2. patient, 28. day, before treatment 302",286
same,OCT CPT (center point thickness),"macular edema; 2. patient, 56. day, before treatment 257",201
same,OCT CST (central subfield thickness),"macular edema; 2. patient, 56. day, before treatment 302",252
same,macular edema,macular edema; [2],significant decrease of the macular edema was observed in the fovea
same,blood pressure of the animals,[1],did not cause lowering of the blood pressure
same,serum SSAO activity,SSAO; [2],parallel decrease of serum SSAO activity
same,SSAO activity (pmol/mg protein/hour),"SSAO; 1. patient, 14. day, before treatment 93.02",62.42 pmol/mg protein/hour
same,SSAO activity (pmol/mg protein/hour),"SSAO; 1. patient, 28. day, before treatment 93.02",85.73 pmol/mg protein/hour
same,SSAO activity (pmol/mg protein/hour),"SSAO; 1. patient, 56. day, before treatment 93.02",82.41 pmol/mg protein/hour
same,SSAO activity (pmol/mg protein/hour),"SSAO; 2. patient, 14. day, before treatment 167.56",127.96 pmol/mg protein/hour
same,SSAO activity (pmol/mg protein/hour),"SSAO; 2. patient, 28. day, before treatment 167.56",186.36 pmol/mg protein/hour
same,SSAO activity (pmol/mg protein/hour),"SSAO; 2. patient, 56. day, before treatment 167.56",105.1 pmol/mg protein/hour
